“And” between values parts separate entries of the source, which are not always exact repeats. Identical values can stand only once.
What was measured:
[1] = molecular target: Acetylcholinesterase (AChE) (Electrophorus electricus, UniProt O42275); assay: biochemical; details: Ellman's method, triplicate; read-out: Acetylcholinesterase (AChE) IC50 ± SEM
Method: (§1) Modified Ellman’s method was adopted to investigate the inhibitory potential of newly synthesized compounds against cholinesterase enzymes. The assay protocol involved 96-well plates (100 μL per well). Each well contained 20 μL of assay buffer solution, 10 μL of test sample, and 10 μL of 0.5 U/mg of AChE (for AChE inhibition assay) or 10 μL of 3.4 U/mg of BChE (for BChE inhibition assay). This mixture was incubated at 25 °C for 10 min followed by the addition of substrate (10 μL). For AChE inhibition assay, acetylthiocholine iodide (ATCI, 1 mM) while for BChE assay, butyrylthiocholine chloride (BTCCl, 1 mM), was added. This mixture was incubated for 15 min at 37 °C. Ellman reagent (5,5′-dithio-bis(2-nitrobenzoic acid), DTNB, 3 mM) was added. […] Blank assay was also performed. All the analyses were performed in triplicate. IC50 values were also calculated for the synthesized compounds in GraphPad prism 5.0. using nonlinear regression method.

[2] = molecular target: Butyrylcholinesterase (BChE) (Equus caballus, UniProt P81908); assay: biochemical; details: Ellman's method, triplicate; read-out: Butyrylcholinesterse (BChE) IC50 ± SEM
Method: as §1

[3] = In vitro cytotoxicity, MTT assay; type: cell-based; details: human, HepG2 cells, 24 h, control = 100, read-out: Cell Viability; for viability at 24 h, 50 μg/mL: HepG2, 50 μg/mL; for viability at 24 h, 100 μg/mL: HepG2, 100 μg/mL; for viability at 24 h, 200 μg/mL: HepG2, 200 μg/mL; for viability at 24 h, 500 μg/mL: HepG2, 500 μg/mL; for viability at 24 h, 1000 μg/mL: HepG2, 1000 μg/mL
Method: (§2) HepG2 cell line was obtained from the cell culture laboratory established in The University of Lahore. These cell lines were preserved in cryo vials present in liquid nitrogen. Cryo vials were revived for further processing.
(§3) The cryo vials obtained from liquid nitrogen cylinder were thawed. Then HepG2 cells were cultured in the culturing flask in which DMEM-HG along with 10% fetal bovine serum (FBS), supplemented with […] (Sigma) and 100 U/mL streptomycin (Sigma) were added. Cultures were maintained in a humidified incubator supplied with 5% CO2 at 37 °C. Experiments were performed in triplicates. When cultured HepG2 cells achieved 70–80% confluence their subculturing was conducted. For splitting, the cells attached to the walls of the culturing flask were washed with 1× phosphate buffer saline (PBS) and incubated with 0.05% trypsin-EDTA until cells detached from the surface of culturing flask. The detachment of the cells was confirmed by observing the flask under the inverted microscope. A few drops of FBS were added to the flask and mixed well by stirring. The mixture was centrifuged at 2000 rpm for 5 min. After centrifugation the supernatant was removed, and pellet was resuspended. HepG2 cells were cultured onto 96-well plates for measurement of cell viability. Treatment was given for both compounds at a concentration of 0–1000 µg/mL for 24 h.
(§4) After 4 h formazan crystals were solubilized with 10% sodium dodecylsulphate (SDS) (Invitrogen Inc.) and absorbance was taken at 570 nm. Percentage viability was calculated according to the following formula:% Viable cells = ((abs sample − abs blank) / (abs control − abs blank)) × 100 (1) where abs stands for absorbance.

HepG2 cells = assay: In vitro cytotoxicity, MTT assay; type: cell-based; details: HepG2, MTT, 0–1000 µg/mL, 24 h
Method: as §2, §3, §4

Butyrylcholinesterase (BChE), sequence (P81908 whole entry): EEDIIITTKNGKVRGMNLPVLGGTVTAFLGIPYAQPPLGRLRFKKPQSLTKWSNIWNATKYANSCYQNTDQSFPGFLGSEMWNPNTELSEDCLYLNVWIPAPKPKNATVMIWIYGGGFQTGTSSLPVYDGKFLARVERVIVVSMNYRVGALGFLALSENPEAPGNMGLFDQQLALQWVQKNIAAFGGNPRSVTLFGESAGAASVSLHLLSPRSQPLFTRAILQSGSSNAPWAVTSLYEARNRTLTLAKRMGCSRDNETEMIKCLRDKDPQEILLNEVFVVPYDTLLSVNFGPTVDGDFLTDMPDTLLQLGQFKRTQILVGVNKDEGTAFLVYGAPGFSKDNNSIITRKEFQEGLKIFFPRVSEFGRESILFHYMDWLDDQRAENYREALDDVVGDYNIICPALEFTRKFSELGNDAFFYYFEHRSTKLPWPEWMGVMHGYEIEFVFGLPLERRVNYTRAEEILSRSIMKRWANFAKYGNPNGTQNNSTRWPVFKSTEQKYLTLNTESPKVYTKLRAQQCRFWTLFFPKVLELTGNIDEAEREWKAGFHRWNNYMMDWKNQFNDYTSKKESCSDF
Acetylcholinesterase (AChE), sequence (O42275 24-633): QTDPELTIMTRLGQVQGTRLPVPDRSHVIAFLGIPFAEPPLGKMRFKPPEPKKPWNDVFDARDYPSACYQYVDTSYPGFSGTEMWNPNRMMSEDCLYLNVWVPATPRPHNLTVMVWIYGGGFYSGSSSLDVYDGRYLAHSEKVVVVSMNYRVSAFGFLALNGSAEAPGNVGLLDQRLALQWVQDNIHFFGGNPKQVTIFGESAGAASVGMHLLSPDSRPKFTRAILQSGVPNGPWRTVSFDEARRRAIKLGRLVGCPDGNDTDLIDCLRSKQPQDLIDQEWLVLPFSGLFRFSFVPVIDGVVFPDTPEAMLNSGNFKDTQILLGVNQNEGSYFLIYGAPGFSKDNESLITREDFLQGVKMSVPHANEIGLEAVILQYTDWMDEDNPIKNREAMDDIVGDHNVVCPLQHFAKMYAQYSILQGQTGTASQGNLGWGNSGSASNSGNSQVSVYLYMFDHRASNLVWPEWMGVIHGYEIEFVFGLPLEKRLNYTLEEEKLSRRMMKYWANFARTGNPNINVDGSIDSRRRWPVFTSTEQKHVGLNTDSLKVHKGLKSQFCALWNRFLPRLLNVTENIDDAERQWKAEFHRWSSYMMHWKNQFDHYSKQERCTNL

Row | SMILES | IC50 [1] | IC50 [2] | viability at 24 h, 50 μg/mL [3] [%] | viability at 24 h, 100 μg/mL [3] [%] | viability at 24 h, 200 μg/mL [3] [%] | viability at 24 h, 500 μg/mL [3] [%] | viability at 24 h, 1000 μg/mL [3] [%] | Status (HepG2 cells)
1 | Cc1ccc2nc(N3CCCCC3)c(C=NNC(N)=S)cc2c1 [Compound 5a, 2-((6-Methyl-2-(piperidin-1-yl)quinolin-3-yl)methylene)hydrazinecarbothioamide] | 27.6 ± 0.08 µM | 35.3 ± 0.01 µM | 95.4 | 88.9 | 92.8 | 95.8 | 102 | Non-cytotoxic
2 | Cc1ccc2nc(N3CCCCC3)c(C=NNC(=S)Nc3ccc(F)cc3)cc2c1 [Compound 5j, N-(4-Fluorophenyl)-2-((6-methyl-2-(piperidin-1-yl)quinolin-3-yl)methylene)hydrazine carbothioamide] | 28.2 ± 0.94 µM | 42.4 ± 0.44 µM | 93.4 | 98.1 | 107 | 138 | 166 | Proliferative
3 | Cc1cccc2cc(C=NNC(=S)Nc3ccccc3)c(N3CCCCC3)nc12 [Compound 6b, 2-((8-Methyl-2-(piperidin-1-yl)quinolin-3-yl)methylene)-N-phenylhydrazinecarbothioamide] | 25.9 ± 0.45 µM | 28.8 ± 0.63 µM | 89.9 | 95.7 | 92.8 | 112 | 69.2 | Cytotoxic
4 | Cc1ccc(NC(=S)NN=Cc2cc3cccc(C)c3nc2N2CCCCC2)c(C)c1 [Compound 6c, N-(2,4-Dimethylphenyl)-2-((8-methyl-2-(piperidin-1-yl)quinolin-3-yl)methylene)hydrazine carbothioamide] | 39.12 ± 0.27 µM | 24.59 ± 0.09 µM | 87.5 | 116 | 154 | 187 | 233 | Proliferative
5 | Cc1cccc2cc(C=NNC(=S)Nc3ccc(F)cc3)c(N3CCCCC3)nc12 [Compound 6j, N-(4-Fluorophenyl)-2-((8-methyl-2-(piperidin-1-yl)quinolin-3-yl)methylene)hydrazine carbothioamide] | 56.66 ± 0.41 µM | 51 ± 0.52 µM | 103 | 93.7 | 94.8 | 108 | 114 | Non-cytotoxic
6 | Cc1ccc2nc(N3CCCCC3)c(C=NNC(=S)Nc3cccc(Cl)c3)cc2c1 [Compound 5f, N-(3-Chlorophenyl)-2-((6-methyl-2-(piperidin-1-yl)quinolin-3-yl)methylene)hydrazine carbothioamide] | 23.9 ± 0.25 µM | 24.6 ± 0.57 µM | 84.8 | 94.9 | 93.9 | 93.2 | 56.9 | Cytotoxic
7 | Cc1cccc2cc(C=NNC(=S)Nc3cccc(Cl)c3)c(N3CCCCC3)nc12 [Compound 6f, N-(3-Chlorophenyl)-2-((8-methyl-2-(piperidin-1-yl)quinolin-3-yl)methylene)hydrazine carbothioamide] | < 20 µM and 9.68 µM | < 20 µM and 11.6 µM | 110 | 110 | 109 | 139 | 189 | Proliferative
8 | Cc1cccc2cc(C=NNC(=S)Nc3ccc(Cl)cc3)c(N3CCCCC3)nc12 [Compound 6g, N-(4-Chlorophenyl)-2-((8-methyl-2-(piperidin-1-yl)quinolin-3-yl)methylene)hydrazine carbothioamide] | < 20 µM and 13.8 µM | < 20 µM and 18.6 µM | 113 | 106 | 111 | 150 | 214 | Proliferative
9 | Cc1ccc(NC(=S)NN=Cc2cc3cc(C)ccc3nc2N2CCCCC2)c(C)c1 [Compound 5c, N-(2,4-Dimethylphenyl)-2-((6-methyl-2-(piperidin-1-yl)quinolin-3-yl)methylene)hydrazine carbothioamide] | 42.3 ± 0.99 µM | 37.2 ± 0.83 µM | 105 | 109 | 122 | 188 | 262 | Proliferative
10 | Cc1cccc(C)c1NC(=S)NN=Cc1cc2cccc(C)c2nc1N1CCCCC1 [Compound 6d, N-(2,6-Dimethylphenyl)-2-((8-methyl-2-(piperidin-1-yl)quinolin-3-yl)methylene)hydrazine carbothioamide] | < 20 µM and 12.9 µM | < 20 µM and 17.9 µM | 75 | 93.9 | 91.3 | 129 | 173 | Proliferative
11 | CCc1ccc(NC(=S)NN=Cc2cc3cccc(C)c3nc2N2CCCCC2)cc1 [Compound 6k, N-(4-Ethylphenyl)-2-((8-methyl-2-(piperidin-1-yl)quinolin-3-yl)methylene)hydrazine carbothioamide] | 39.9 ± 0.85 µM | 32.01 ± 0.31 µM | 103 | 105 | 107 | 138 | 157 | Proliferative

From publication PMC7866225, “Microwave-Assisted Synthesis of (Piperidin-1-yl)quinolin-3-yl)methylene)hydrazinecarbothioamides as Potent Inhibitors of Cholinesterases: A Biochemical and In Silico Approach” (Molecules, 2021)
